Measurements taken from patent US12018059B2, “Human amylin analog polypeptides and methods of use” (Intarcia Therapeutics, Inc., priority 2018, dated 2024).
Starred links: 1 amine or outer side, 2 acyl side, 3 side chain; linkers in the order of their positions; H or OH if unused. Positions of bridges follow the written chain, without caps; N, C: chain ends. Residues, ends and D or L forms follow the SMILES beside them. Groups on a side chain read outwards from the residue. *: point of attachment. C18 diacid = O=C(O)CCCCCCCCCCCCCCCCC(=O)*; γGlu = O=C(O)[C@H](CCC(=O)[*:2])N[*:1]; Palmitoyl = CCCCCCCCCCCCCCCC(=O)*; AEEA = NCCOCCOCC(=O)O

assay: in vivo; design: species or system Sprague-Dawley rats; conditions: rat, iv, 0.033 mg/kg
How it was run: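 Male Sprague-Dawley rats, non-fasted (n=3), given peptide in saline as 1-h IV or SC infusion at 0.033 mg/kg, or SC bolus at 0.3 mg/kg; jugular blood to 48 h into K2EDTA plus protease inhibitors. Plasma extracted by precipitation or WCX solid-phase extraction, quantified by UPLC-MS/MS against standards in matching rat plasma.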

**Q.** With `CC[C@H](C)[C@H](NC(=O)[C@@H]1CCCN1C(=O)CNC(=O)[C@H](Cc1ccccc1)NC(=O)[C@H](CC(N)=O)NC(=O)[C@H](CC(N)=O)NC(=O)[C@H](CO)NC(=O)[C@H](CO)NC(=O)[C@H](CCCCN)NC(=O)[C@H](CCC(N)=O)NC(=O)[C@H](CC(C)C)NC(=O)[C@H](Cc1ccccc1)NC(=O)[C@H](CC(N)=O)NC(=O)[C@H](C)NC(=O)[C@H](CC(C)C)NC(=O)[C@H](CCCNC(=N)N)NC(=O)[C@H](CO)NC(=O)[C@@H](NC(=O)[C@H](C)NC(=O)[C@@H]1CSSC[C@H](NC(=O)[C@@H](N)CCCCNC(=O)CC[C@H](NC(=O)CCCCCCCCCCCCCCCCC(=O)O)C(=O)O)C(=O)N[C@@H](CC(N)=O)C(=O)N[C@@H]([C@@H](C)O)C(=O)N[C@@H](CO)C(=O)N[C@@H]([C@@H](C)O)C(=O)N1)[C@@H](C)O)C(=O)N[C@@H](CC(C)C)C(=O)N1CCC[C@H]1C(=O)N1CCC[C@H]1C(=O)N[C@H](C(=O)N[C@@H](CCCCN)C(=O)N[C@H](C(=O)NCC(=O)N[C@@H](CO)C(=O)N[C@@H](CCC(=O)O)C(=O)N[C@H](C(=O)N[C@@H](Cc1ccc(O)cc1)C(N)=O)[C@@H](C)O)C(C)C)[C@@H](C)O` [Compound A109] (H-K([γGlu-C18 diacid])CNTSTCATSRLANFLQKSSNNFGPILPPTKVGSETY-NH2; disulfide 2-7; N-terminus assumed) as the compound, how does the Vd read?
**A.** Its Vd is 0.154 L/kg.

**Q.** And the clearance?
**A.** The clearance was 0.15 mL/min/kg.

**Q.** And the half-life?
**A.** The half-life was 16 h.

**Q.** What does the source list for `CCCCCCCCCCCCCCCC(=O)N[C@@H](CCC(=O)NCCCC[C@H](NC(=O)[C@H](CCCNC(=N)N)NC(=O)[C@H](CCC(N)=O)NC(=O)[C@@H](NC(=O)[C@H](C)NC(=O)[C@@H]1CSSC[C@H](NC(=O)[C@@H](N)CO)C(=O)N[C@@H](CC(N)=O)C(=O)N[C@@H]([C@@H](C)O)C(=O)N[C@@H](CO)C(=O)N[C@@H]([C@@H](C)O)C(=O)N1)[C@@H](C)O)C(=O)N[C@@H](C)C(=O)N[C@@H](CC(N)=O)C(=O)N[C@@H](CCC(=O)O)C(=O)N[C@@H](CC(C)C)C(=O)N[C@@H](Cc1c[nH]cn1)C(=O)N[C@@H](CCCCN)C(=O)N[C@@H](CO)C(=O)N[C@@H](CO)C(=O)N[C@@H](CC(N)=O)C(=O)N[C@@H](CC(N)=O)C(=O)N[C@@H](Cc1ccccc1)C(=O)NCC(=O)N1CCC[C@H]1C(=O)N[C@H](C(=O)N[C@@H](CC(C)C)C(=O)N1CCC[C@H]1C(=O)N1CCC[C@H]1C(=O)N[C@H](C(=O)N[C@@H](CCCCN)C(=O)N[C@H](C(=O)NCC(=O)N[C@@H](CO)C(=O)N[C@@H](CCC(=O)O)C(=O)N[C@H](C(=O)N[C@@H](Cc1ccc(O)cc1)C(N)=O)[C@@H](C)O)C(C)C)[C@@H](C)O)[C@@H](C)CC)C(=O)O` [Compound A121] (H-SCNTSTCATQRK([γGlu-Palmitoyl])ANELHKSSNNFGPILPPTKVGSETY-NH2; disulfide 2-7)?
**A.** Vd: 0.239 L/kg; clearance: 2.11 mL/min/kg; half-life: 1.8 h

**Q.** With `CCCCCCCCCCCCCCCC(=O)N[C@@H](CCC(=O)NCCOCCOCC(=O)NCCOCCOCC(=O)N[C@@H](CCC(=O)N[C@@H](CCC(=O)NCCCC[C@H](NC(=O)[C@H](CCC(=O)O)NC(=O)[C@H](CC(N)=O)NC(=O)[C@H](C)NC(=O)[C@H](CC(C)C)NC(=O)[C@H](CCCNC(=N)N)NC(=O)[C@H](CCC(N)=O)NC(=O)[C@@H](NC(=O)[C@H](C)NC(=O)[C@@H]1CSSC[C@H](NC(=O)[C@@H](N)CO)C(=O)N[C@@H](CC(N)=O)C(=O)N[C@@H]([C@@H](C)O)C(=O)N[C@@H](CO)C(=O)N[C@@H]([C@@H](C)O)C(=O)N1)[C@@H](C)O)C(=O)N[C@@H](Cc1c[nH]cn1)C(=O)N[C@@H](CCCCN)C(=O)N[C@@H](CO)C(=O)N[C@@H](CO)C(=O)N[C@@H](CC(N)=O)C(=O)N[C@@H](CC(N)=O)C(=O)N[C@@H](Cc1ccccc1)C(=O)NCC(=O)N1CCC[C@H]1C(=O)N[C@H](C(=O)N[C@@H](CC(C)C)C(=O)N1CCC[C@H]1C(=O)N1CCC[C@H]1C(=O)N[C@H](C(=O)N[C@@H](CCCCN)C(=O)N[C@H](C(=O)NCC(=O)N[C@@H](CO)C(=O)N[C@@H](CCC(=O)O)C(=O)N[C@H](C(=O)N[C@@H](Cc1ccc(O)cc1)C(N)=O)[C@@H](C)O)C(C)C)[C@@H](C)O)[C@@H](C)CC)C(=O)O)C(=O)O)C(=O)O` [Compound A122] (H-SCNTSTCATQRLANEK([γGlu-γGlu-AEEA-AEEA-γGlu-Palmitoyl])HKSSNNFGPILPPTKVGSETY-NH2; disulfide 2-7; N-terminus assumed) as the compound, how does the Vd read?
**A.** The Vd was 0.763 L/kg.

**Q.** And the clearance?
**A.** Its clearance is 1.95 mL/min/kg.

**Q.** And the half-life?
**A.** Its half-life is 5.13 h.
